Assay results published in US9125913B2, “Bcl-2-selective apoptosis-inducing agents for the treatment of cancer and immune diseases” (AbbVie Inc., priority 2008, dated 2015).

Columns and labels:
GST-Bcl-2 = assay: TR-FRET binding assay, Bcl-2; conditions: TR-FRET Ki values
Outline: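 Compounds serially diluted in DMSO from 50 μM (2× starting concentration, 10% DMSO), mixed with GST-tagged protein, F-Bak peptide probe and Tb-labeled antibody, incubated 3 h at room temperature.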

FL5.12/Bcl-2 cells = assay: FL5.12/Bcl-2 cell viability assay; format: cell-based, murine; conditions: ratio of canine platelet EC50 to FL5.12/Bcl-2 EC50
Excerpt: FL5.12 is an IL-3 dependent prolymphocytic murine cell line that undergoes apoptosis upon IL-3 withdrawal as a result of the upregulation of pro-apoptotic Bcl-2 proteins such as Bim and Puma. Stable overexpression of anti-apoptotic Bcl-2 protein (FL5.12/Bcl-2) protects against apoptosis induced by IL-3 withdrawal by sequestration of Bim and Puma. […] The ability of compounds to kill FL5.12/Bcl-2 cells upon IL-3 withdrawal is a direct measure of the compounds' ability to inhibit anti-apoptotic Bcl-2 protein function.
Wild type FL5.12/Bcl-2 overexpressing stable transfectants were cultured in RPMI-1640 supplemented with 2 mM L-glutamine, 10% FBS, 1 mM sodium pyruvate, 2 mM HEPES, 1% penicillin/streptomycin (Invitrogen), 57 μM β-ME, and 10% WEHI-3B conditioned medium (source of IL-3) and maintained at 37° C. containing 5% CO2. 1×10^6 cells/ml were washed 1×PBS and resuspended in medium not supplemented with 10% WEHI-3B for 48 hrs prior to cytotoxicity assays. Cells were then treated for an additional 24 hrs in the presence of various concentrations of the indicated compounds. Cell viability was assessed by CellTitre Glo assay (Promega Corp.) according to the manufacturer's recommendations.

Compound	Binding selectivity ratio (Bcl-XL Ki/Bcl-2 Ki) (GST-Bcl-2)	Selectivity Ratio (Platelet EC50/FL5.12/Bcl-2 EC50) (FL5.12/Bcl-2 cells)
O=C(NS(=O)(=O)c1ccc(NCC2CCOCC2)c([N+](=O)[O-])c1)c1ccc(N2CCN(Cc3c(OCCN4CCOCC4)cccc3-c3ccc(Cl)cc3)CC2)cc1Oc1ccc2[nH]ccc2c1 [Example 132, 4-(4-{[4′-chloro-3-(2-morpholin-4-ylethoxy)-1,1′-biphenyl-2-yl]methyl}piperazin-1-yl)-2-(1H-indol-5-yloxy)-N-({3-nitro-4-[(tetrahydro-2H-pyran-4-ylmethyl)amino]phenyl}sulfonyl)benzamide]	570.1	>1196
CN1CCN(CCCNc2ccc(S(=O)(=O)NC(=O)c3ccc(N4CCN(Cc5ccccc5-c5ccc(Cl)cc5)CC4)cc3Oc3ccccc3)cc2[N+](=O)[O-])CC1 [Example 86, 4-{4-[(4′-chloro-1,1′-biphenyl-2-yl)methyl]piperazin-1-yl}-N-[(4-{[3-(4-methylpiperazin-1-yl)propyl]amino}-3-nitrophenyl)sulfonyl]-2-phenoxybenzamide]	49.6	489
O=C(NS(=O)(=O)c1ccc(NCCCN2CCCC2)c([N+](=O)[O-])c1)c1ccc(N2CCN(CC3=C(c4ccc(Cl)cc4)CCC3)CC2)cc1Oc1cccc2[nH]ccc12 [Example 143, 4-(4-{[2-(4-chlorophenyl)cyclopent-1-en-1-yl]methyl}piperazin-1-yl)-2-(1H-indol-4-yloxy)-N-({3-nitro-4-[(3-pyrrolidin-1-ylpropyl)amino]phenyl}sulfonyl)benzamide]	33.8	>251
CN1CCC(Nc2ccc(S(=O)(=O)NC(=O)c3ccc(N4CCN(CC5=C(c6ccc(Cl)cc6)CC(C)(C)CC5)CC4)cc3Oc3ccc4[nH]ncc4c3)cc2[N+](=O)[O-])CC1 [Example 21, 4-(4-{[2-(4-chlorophenyl)-4,4-dimethylcyclohex-1-en-1-yl]methyl}piperazin-1-yl)-2-(1H-indazol-5-yloxy)-N-({4-[(1-methylpiperidin-4-yl)amino]-3-nitrophenyl}sulfonyl)benzamide]	35.1	>49
CN(C)CCOc1cccc(-c2ccc(Cl)cc2)c1CN1CCN(c2ccc(C(=O)NS(=O)(=O)c3ccc(NCC4CCOCC4)c([N+](=O)[O-])c3)c(Oc3cccc4[nH]ccc34)c2)CC1 [Example 128, 4-[4-({4′-chloro-3-[2-(dimethylamino)ethoxy]-1,1′-biphenyl-2-yl}methyl)piperazin-1-yl]-2-(1H-indol-4-yloxy)-N-({3-nitro-4-[(tetrahydro-2H-pyran-4-ylmethyl)amino]phenyl}sulfonyl)benzamide]	7117.6	>2000
CC(C)N(CCOc1ccc(-c2ccc(Cl)cc2)c(CN2CCN(c3ccc(C(=O)NS(=O)(=O)c4ccc(NCC5CCOCC5)c([N+](=O)[O-])c4)c(Oc4ccccc4)c3)CC2)c1)C(C)C [Example 139, 4-[4-({4′-chloro-4-[2-(diisopropylamino)ethoxy]-1,1′-biphenyl-2-yl}methyl)piperazin-1-yl]-N-({3-nitro-4-[(tetrahydro-2H-pyran-4-ylmethyl)amino]phenyl}sulfonyl)-2-phenoxybenzamide]	103.1	841
CC1(C)CCC(CN2CCN(c3ccc(C(=O)NS(=O)(=O)c4ccc(NCCCN5CCOCC5)c([N+](=O)[O-])c4)c(Oc4ccccc4)c3)CC2)=C(c2ccc(Cl)cc2)C1 [Example 18, 4-(4-{[2-(4-chlorophenyl)-4,4-dimethylcyclohex-1-en-1-yl]methyl}piperazin-1-yl)-N-({4-[(3-morpholin-4-ylpropyl)amino]-3-nitrophenyl}sulfonyl)-2-phenoxybenzamide]	34.2	241
CN(C)CCCNc1ccc(S(=O)(=O)NC(=O)c2ccc(N3CCN(CC4=C(c5ccc(Cl)cc5)CC(C)(C)CC4)CC3)cc2Oc2ccc3[nH]ccc3c2)cc1C(F)(F)F [Example 171, 4-(4-{[2-(4-chlorophenyl)-4,4-dimethylcyclohex-1-en-1-yl]methyl}piperazin-1-yl)-N-{[4-{[3-(dimethylamino)propyl]amino}-3-(trifluoromethyl)phenyl]sulfonyl}-2-(1H-indol-5-yloxy)benzamide]	17.7	>181
CN(C)CCCNc1ccc(S(=O)(=O)NC(=O)c2ccc(N3CCN(Cc4ccccc4-c4ccc(Cl)cc4)CC3)cc2Oc2ccc3ccccc3c2)cc1[N+](=O)[O-] [Example 166, 4-{4-[(4′-chloro-1,1′-biphenyl-2-yl)methyl]piperazin-1-yl}-N-[(4-{[3-(dimethylamino)propyl]amino}-3-nitrophenyl)sulfonyl]-2-(2-naphthyloxy)benzamide]	7.1	>327
O=C(NS(=O)(=O)c1ccc(NCC2CCOCC2)c([N+](=O)[O-])c1)c1ccc(N2CCN(Cc3cc(CN4CCCC4)ccc3-c3ccc(Cl)cc3)CC2)cc1Oc1cccc2[nH]ccc12 [Example 24, 4-(4-{[4′-chloro-4-(pyrrolidin-1-ylmethyl)-1,1′-biphenyl-2-yl]methyl}piperazin-1-yl)-2-(1H-indol-4-yloxy)-N-({3-nitro-4-[(tetrahydro-2H-pyran-4-ylmethyl)amino]phenyl}sulfonyl)benzamide]	>3402.1	>906
CN1CCC(CNc2ccc(S(=O)(=O)NC(=O)c3ccc(N4CCN(CC5=C(c6ccc(Cl)cc6)CC(C)(C)CC5)CC4)cc3Oc3ccc4[nH]ccc4c3)cc2[N+](=O)[O-])(N(C)C)CC1 [Example 109, 4-(4-{[2-(4-chlorophenyl)-4,4-dimethylcyclohex-1-en-1-yl]methyl}piperazin-1-yl)-N-{[4-({[4-(dimethylamino)-1-methylpiperidin-4-yl]methyl}amino)-3-nitrophenyl]sulfonyl}-2-(1H-indol-5-yloxy)benzamide]	>4099.4	>1404
O=C(NS(=O)(=O)c1ccc(NCC2CCOCC2)c([N+](=O)[O-])c1)c1ccc(N2CCN(Cc3ccccc3-c3ccc(Cl)cc3)CC2)cc1Oc1cccc2[nH]ccc12 [Example 45, 4-{4-[(4′-chloro-1,1′-biphenyl-2-yl)methyl]piperazin-1-yl}-2-(1H-indol-4-yloxy)-N-({3-nitro-4-[(tetrahydro-2H-pyran-4-ylmethyl)amino]phenyl}sulfonyl)benzamide]	>797.1	>360
CN1CCC(CNc2ccc(S(=O)(=O)NC(=O)c3ccc(N4CCN(CC5=C(c6ccc(Cl)cc6)CC(C)(C)CC5)CC4)cc3Oc3cccc4[nH]ccc34)cc2[N+](=O)[O-])CC1 [Example 105, 4-(4-{[2-(4-chlorophenyl)-4,4-dimethylcyclohex-1-en-1-yl]methyl}piperazin-1-yl)-2-(1H-indol-4-yloxy)-N-[(4-{[(1-methylpiperidin-4-yl)methyl]amino}-3-nitrophenyl)sulfonyl]benzamide]	62.7	2262
CN(C)CCOc1ccc(-c2ccc(Cl)cc2)c(CN2CCN(c3ccc(C(=O)NS(=O)(=O)c4ccc(NC5CCN(CC(F)(F)F)CC5)c([N+](=O)[O-])c4)c(Oc4ccccc4)c3)CC2)c1 [Example 137, 4-[4-({4′-chloro-4-[2-(dimethylamino)ethoxy]-1,1′-biphenyl-2-yl}methyl)piperazin-1-yl]-N-[(3-nitro-4-{[1-(2,2,2-trifluoroethyl)piperidin-4-yl]amino}phenyl)sulfonyl]-2-phenoxybenzamide]	52.4	>178
CN1CCC(Nc2ccc(S(=O)(=O)NC(=O)c3ccc(N4CCN(CC5=C(c6ccc(Cl)cc6)CC(C)(C)CC5)CC4)cc3Oc3ccccc3)cc2[N+](=O)[O-])CC1 [Example 152, 4-(4-{[2-(4-chlorophenyl)-4,4-dimethylcyclohex-1-en-1-yl]methyl}piperazin-1-yl)-N-({4-[(1-methylpiperidin-4-yl)amino]-3-nitrophenyl}sulfonyl)-2-phenoxybenzamide]	15.8	283
CN(C)CCCOc1ccc(S(=O)(=O)NC(=O)c2ccc(N3CCN(CC4=C(c5ccc(Cl)cc5)CC(C)(C)CC4)CC3)cc2Oc2ccc3[nH]ccc3c2)cc1[N+](=O)[O-] [Example 100, 4-(4-{[2-(4-chlorophenyl)-4,4-dimethylcyclohex-1-en-1-yl]methyl}piperazin-1-yl)-N-({4-[3-(dimethylamino)propoxy]-3-nitrophenyl}sulfonyl)-2-(1H-indol-5-yloxy)benzamide]	71.4	2029
CN1CCC(Nc2ccc(S(=O)(=O)NC(=O)c3ccc(N4CCN(Cc5ccccc5-c5ccc(Cl)cc5)CC4)cc3Oc3ccccc3)cc2[N+](=O)[O-])CC1 [Example 89, 4-{4-[(4′-chloro-1,1′-biphenyl-2-yl)methyl]piperazin-1-yl}-N-({4-[(1-methylpiperidin-4-yl)amino]-3-nitrophenyl}sulfonyl)-2-phenoxybenzamide]	57.8	495
